Measured values taken from article doi:10.1101/571604v1 (biorxiv, 2019).

Experiments:
[1] = biological target: T1, FPR2 (human blood neutrophils) (Homo sapiens, UniProt P25090); test: NADPH-oxidase superoxide release, isoluminol chemiluminescence, peak response; format: cell-based; conditions: agonist; naive neutrophils, 37 °C, pH 7.3
T1 sequence (P25090 1-351): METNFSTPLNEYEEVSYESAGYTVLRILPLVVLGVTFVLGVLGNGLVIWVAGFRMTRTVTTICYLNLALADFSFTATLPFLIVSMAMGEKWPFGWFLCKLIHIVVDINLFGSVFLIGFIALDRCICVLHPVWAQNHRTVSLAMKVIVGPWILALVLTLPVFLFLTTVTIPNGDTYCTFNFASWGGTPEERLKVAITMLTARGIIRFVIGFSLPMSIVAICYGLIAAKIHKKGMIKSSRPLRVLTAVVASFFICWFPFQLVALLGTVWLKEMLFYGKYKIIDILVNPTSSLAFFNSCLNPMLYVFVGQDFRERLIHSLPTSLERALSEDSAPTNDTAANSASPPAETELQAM

[2] = biological target: T2, FPR2 (PathHunter eXpress CHO-K1 FPR2 cells) (Homo sapiens, UniProt P25090); test: beta-arrestin recruitment, PathHunter enzyme fragment complementation; format: cell-based
T2 sequence (P25090 1-351): T1 sequence (P25090 1-351)

EC50 [1]: ~10 nM
EC50 [2]: ~20 nM
Compound: Cc1cccc(-c2oc(C)nc2C(=O)Nc2cnn(Cc3nc(C(C)(F)F)co3)n2)c1 [Act-389949, N-(2-{[4-(1,1-difluoroethyl)-1,3-oxazol-2-yl]methyl}-2H-1,2,3-triazol-4-yl)-2-methyl-5-(3-methylphenyl)-1,3-oxazole-4-carboxamide]
